The test system of one data set is Mus musculus. The data set is described as follows: Toxicity in DIO C57BL6 mouse assessed as body weight loss at 30 mg/kg, po administered qd from day 1 to 7 and bid from day 8 to 14 followed by single dose on day 15 morning. The data set is classed as organism-based. Also noted: dose 30 mg/kg, route oral. The settings on record: in vivo.
The species entered for data set [1] is Homo sapiens. The data set is described as follows: Reduction of triglyceride AUC in human. Format: functional, organism-based.
The species named for data set [2] is Homo sapiens. The data set is described as follows: Reduction of triglyceride AUC in human receiving 60% fat meal at >5 mg. Format: functional. Also noted: scale not given: the % may be the effect or the level left.
Data set [3] is filed under the species Homo sapiens. The data set is described as follows: Reduction of triglyceride AUC in human relative to baseline. Format: functional. Also noted: scale not given: the % may be the effect or the level left.
Data set [4] in a line: Tmax in human. The data set is classed as ADME, organism-based. Particulars: in vivo.
The species entered for data set [5] is Homo sapiens. The data set is described as follows: Reduction of triglyceride AUC in human at 60 mg. The data set is classed as functional. Also noted: scale not given: the % may be the effect or the level left.
Data set [6] deals with Homo sapiens. The data set is described as follows: Reduction in triglycerides in familial chylomicronemia syndrome patients measured after 3 weeks of compound dosing. The data set is classed as functional. Also noted: scale not given: the % may be the effect or the level left.

Bounds are passed on as bounds.

On to `CC1(C)Oc2ncnc(N)c2N=C1c1ccc([C@H]2CC[C@H](CC(=O)O)CC2)cc1`, for which the Activity in the data set on Mus musculus is reported as 6.7%.
The EC50 is the concentration needed to bring the measured effect to its halfway point. The term Tmax denotes the time at which the peak concentration occurs. As to `Cc1nc(C)c(-c2ccc(C3CCC(CC(=O)O)CC3)cc2)nc1C(N)=O` (configuration not stated) [AZD-7687], the EC50 in the data set filed under Homo sapiens [1] is 440 nM. In addition, the Activity is listed as >75% in the data set listed under Homo sapiens [2], 84% in the data set listed under Homo sapiens [3] and 50% in the data set listed under Homo sapiens [5]. For the same molecule, the Tmax in data set [4] stood at 1 h.
With `O=C(O)C[C@H]1CC[C@H](c2ccc(-c3ccc(Nc4ccc(C(F)(F)F)nc4)cn3)cc2)CC1` [PRADIGASTAT], the Activity in the data set on Homo sapiens [6] is recorded as 38.4%.

(Values after ChEMBL document CHEMBL3102782, “Current status of the research and development of diacylglycerol O-acyltransferase 1 (DGAT1) inhibitors” (J Med Chem, 2013).)
